US20180263909A1, “DUAL LOADED LIPOSOMAL NANOPARTICLES” (priority 2015, published 2018)

Assays:
NCI-H929 cells = details: 25 nM of each drug, 48 h
Procedure: (§1) Cytotoxicity and Synergy Analysis. 2×10^5 cells/well were plated in a 96-well dish 16 h prior to the experiment. Cells were treated with respective cytotoxic agents at varying concentrations. Cytotoxicity was assessed at 48 h using Cell Counting Kit-8 Reagent (Dojindo Molecular Technologies, Rockville, Mass.).

MM.1S cells = experiment: Cytotoxicity (Cell Counting Kit-8) and Chou-Talalay synergy analysis, MM.1S; type: cell-based; details: 25 nM of each drug, 48 h
Procedure: as §1

How did the cytotoxicity (NCI-H929 cells) turn out when `CC(C)C[C@H](NC(=O)[C@H](CCc1ccccc1)NC(=O)CN1CCOCC1)C(=O)N[C@@H](Cc1ccccc1)C(=O)N[C@@H](CC(C)C)C(=O)[C@@]1(C)CO1` [carfilzomib] was run?
Its cytotoxicity is “minimal cytotoxicity”.

And the cytotoxicity (MM.1S cells)?
Its cytotoxicity is “minimal cytotoxicity”.
